Molecular target: T1, Histone-lysine N-methyltransferase SETD7 (Homo sapiens, UniProt Q8WTS6)
T1 sequence (Q8WTS6 whole entry): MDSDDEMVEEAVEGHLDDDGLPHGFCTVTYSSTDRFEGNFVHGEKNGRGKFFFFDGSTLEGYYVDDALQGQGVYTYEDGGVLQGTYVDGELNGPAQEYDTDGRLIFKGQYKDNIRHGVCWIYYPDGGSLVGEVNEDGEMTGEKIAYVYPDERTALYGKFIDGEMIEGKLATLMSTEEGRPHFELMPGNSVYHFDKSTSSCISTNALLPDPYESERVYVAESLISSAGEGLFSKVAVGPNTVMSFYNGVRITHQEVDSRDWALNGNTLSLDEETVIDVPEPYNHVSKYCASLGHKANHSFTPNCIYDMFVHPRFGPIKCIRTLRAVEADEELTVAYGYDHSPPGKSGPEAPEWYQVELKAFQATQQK
Assay: Inhibition of recombinant SET7/9 (unknown origin) using biotinylated histone H3-derived peptide/SAM as substrate after 60 mins by AlphaLISA assay

| SMILES | IC50 [µM] |
| --- | --- |
| CN1CCC(OC2c3ccccc3Sc3ccccc32)CC1 | > 100 |
| CN1CCN(C2c3ccccc3Sc3ccccc32)CC1 | > 100 |
| CN1CCC(OC2c3ccccc3C=Cc3ccccc32)CC1 | > 100 |
| CN1CCN(C2c3ccccc3C=Cc3ccccc32)CC1 | > 100 |

Second part, the compound after the results:

| IC50 [µM] | SMILES |
| --- | --- |
| > 100 | CN1CCN(C2c3ccccc3Oc3ccccc32)CC1 |
| > 100 | CN1CCC(OC2c3ccccc3Oc3ccccc32)CC1 |
| 3.4 | CN1CCC(=C2c3ccccc3C=Cc3ccccc32)CC1 [CYPROHEPTADINE] |
| 4.3 | CN1CCC(=C2c3ccccc3Sc3ccccc32)CC1 [PIMETHIXENE] |
